# Measurements reported in PubChem BioAssay (NCI).
#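 Test compounds were applied to cells in 96-well plates for 48 hours at 5 doses. The concentration for full growth arrest is given as TGI.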
# Tested on: OVCAR-3 ovarian
# Test: inhibition of tumour cell growth, NCI panel, 48 h
row,SMILES,TGI [µM]
1,CSC1=C(SC)SC(=C2SC3=C(SC(=C4SCCS4)S3)S2)S1,> 100
2,COn1cc(C=O)c2ccccc21,> 100
3,COc1ccc2c(c1)CC[C@@H]1[C@@H]2CC[C@]2(C)C(=O)/C(=C/c3ccc(OC)c(OC)c3)C[C@@H]12,> 100
4,CC1=C(C(N)=O)C(c2ccncc2)C(C#N)=C2SCC(=O)N12 (stereo unspecified),> 100
5,O=C(CC(c1ccccc1)N1CCCCC1)c1ccccc1 (stereo unspecified),23.9
6,O=C(O)c1nc(-c2ccccn2)c(-c2ccccn2)nc1C(=O)O,12.4
7,O=C1/C(=C\c2ccc([N+](=O)[O-])o2)SC2N=C(COc3ccc(Cl)cc3)NN12 (stereo unspecified),18.9

# Tested on: MOLT-4 leukemia
# Test: inhibition of tumour cell growth, NCI panel, 48 h
row,SMILES,TGI [µM]
1,CSC1=C(SC)SC(=C2SC3=C(SC(=C4SCCS4)S3)S2)S1,> 100
2,COn1cc(C=O)c2ccccc21,> 100
3,COc1ccc2c(c1)CC[C@@H]1[C@@H]2CC[C@]2(C)C(=O)/C(=C/c3ccc(OC)c(OC)c3)C[C@@H]12,> 100
4,CC1=C(C(N)=O)C(c2ccncc2)C(C#N)=C2SCC(=O)N12 (stereo unspecified),> 100
5,O=C(CC(c1ccccc1)N1CCCCC1)c1ccccc1 (stereo unspecified),3.92
6,O=C(O)c1nc(-c2ccccn2)c(-c2ccccn2)nc1C(=O)O,> 28.3
7,O=C1/C(=C\c2ccc([N+](=O)[O-])o2)SC2N=C(COc3ccc(Cl)cc3)NN12 (stereo unspecified),> 100

# Tested on: OVCAR-4 ovarian
# Test: inhibition of tumour cell growth, NCI panel, 48 h
row,SMILES,TGI [µM]
1,CSC1=C(SC)SC(=C2SC3=C(SC(=C4SCCS4)S3)S2)S1,> 100
2,COn1cc(C=O)c2ccccc21,> 100
3,COc1ccc2c(c1)CC[C@@H]1[C@@H]2CC[C@]2(C)C(=O)/C(=C/c3ccc(OC)c(OC)c3)C[C@@H]12,> 100
4,CC1=C(C(N)=O)C(c2ccncc2)C(C#N)=C2SCC(=O)N12 (stereo unspecified),> 100
5,O=C(CC(c1ccccc1)N1CCCCC1)c1ccccc1 (stereo unspecified),40.2
6,O=C(O)c1nc(-c2ccccn2)c(-c2ccccn2)nc1C(=O)O,12.5
7,O=C1/C(=C\c2ccc([N+](=O)[O-])o2)SC2N=C(COc3ccc(Cl)cc3)NN12 (stereo unspecified),3.43

# Tested on: 786-0 renal
# Test: inhibition of tumour cell growth, NCI panel, 48 h
row,SMILES,TGI [µM]
1,CSC1=C(SC)SC(=C2SC3=C(SC(=C4SCCS4)S3)S2)S1,> 100
2,COn1cc(C=O)c2ccccc21,> 100
3,COc1ccc2c(c1)CC[C@@H]1[C@@H]2CC[C@]2(C)C(=O)/C(=C/c3ccc(OC)c(OC)c3)C[C@@H]12,> 100
4,CC1=C(C(N)=O)C(c2ccncc2)C(C#N)=C2SCC(=O)N12 (stereo unspecified),> 100
5,O=C(CC(c1ccccc1)N1CCCCC1)c1ccccc1 (stereo unspecified),25.9
6,O=C(O)c1nc(-c2ccccn2)c(-c2ccccn2)nc1C(=O)O,13.2
7,O=C1/C(=C\c2ccc([N+](=O)[O-])o2)SC2N=C(COc3ccc(Cl)cc3)NN12 (stereo unspecified),13.7

# Tested on: HCT-116 colon
# Test: inhibition of tumour cell growth, NCI panel, 48 h
row,SMILES,TGI [µM]
1,CSC1=C(SC)SC(=C2SC3=C(SC(=C4SCCS4)S3)S2)S1,> 100
2,COn1cc(C=O)c2ccccc21,> 100
3,COc1ccc2c(c1)CC[C@@H]1[C@@H]2CC[C@]2(C)C(=O)/C(=C/c3ccc(OC)c(OC)c3)C[C@@H]12,> 100
4,CC1=C(C(N)=O)C(c2ccncc2)C(C#N)=C2SCC(=O)N12 (stereo unspecified),> 100
5,O=C(CC(c1ccccc1)N1CCCCC1)c1ccccc1 (stereo unspecified),19.9
6,O=C(O)c1nc(-c2ccccn2)c(-c2ccccn2)nc1C(=O)O,5.6
7,O=C1/C(=C\c2ccc([N+](=O)[O-])o2)SC2N=C(COc3ccc(Cl)cc3)NN12 (stereo unspecified),14.5

# Tested on: MALME-3M melanoma
# Test: inhibition of tumour cell growth, NCI panel, 48 h
row,SMILES,TGI [µM]
1,CSC1=C(SC)SC(=C2SC3=C(SC(=C4SCCS4)S3)S2)S1,> 100
2,COn1cc(C=O)c2ccccc21,> 100
3,COc1ccc2c(c1)CC[C@@H]1[C@@H]2CC[C@]2(C)C(=O)/C(=C/c3ccc(OC)c(OC)c3)C[C@@H]12,> 100
4,CC1=C(C(N)=O)C(c2ccncc2)C(C#N)=C2SCC(=O)N12 (stereo unspecified),> 100
5,O=C(CC(c1ccccc1)N1CCCCC1)c1ccccc1 (stereo unspecified),30.7
6,O=C(O)c1nc(-c2ccccn2)c(-c2ccccn2)nc1C(=O)O,7.85
7,O=C1/C(=C\c2ccc([N+](=O)[O-])o2)SC2N=C(COc3ccc(Cl)cc3)NN12 (stereo unspecified),6.07

# Tested on: SNB-75 CNS
# Test: inhibition of tumour cell growth, NCI panel, 48 h
row,SMILES,TGI [µM]
1,CSC1=C(SC)SC(=C2SC3=C(SC(=C4SCCS4)S3)S2)S1,> 100
2,COn1cc(C=O)c2ccccc21,> 95.1
3,COc1ccc2c(c1)CC[C@@H]1[C@@H]2CC[C@]2(C)C(=O)/C(=C/c3ccc(OC)c(OC)c3)C[C@@H]12,> 100
4,CC1=C(C(N)=O)C(c2ccncc2)C(C#N)=C2SCC(=O)N12 (stereo unspecified),> 100
5,O=C(CC(c1ccccc1)N1CCCCC1)c1ccccc1 (stereo unspecified),31.4
6,O=C(O)c1nc(-c2ccccn2)c(-c2ccccn2)nc1C(=O)O,11.6
7,O=C1/C(=C\c2ccc([N+](=O)[O-])o2)SC2N=C(COc3ccc(Cl)cc3)NN12 (stereo unspecified),29.7

# Tested on: SK-OV-3 ovarian
# Test: inhibition of tumour cell growth, NCI panel, 48 h
row,SMILES,TGI [µM]
1,CSC1=C(SC)SC(=C2SC3=C(SC(=C4SCCS4)S3)S2)S1,> 100
2,COn1cc(C=O)c2ccccc21,> 100
3,COc1ccc2c(c1)CC[C@@H]1[C@@H]2CC[C@]2(C)C(=O)/C(=C/c3ccc(OC)c(OC)c3)C[C@@H]12,> 100
4,CC1=C(C(N)=O)C(c2ccncc2)C(C#N)=C2SCC(=O)N12 (stereo unspecified),> 100
5,O=C(CC(c1ccccc1)N1CCCCC1)c1ccccc1 (stereo unspecified),31.4
6,O=C(O)c1nc(-c2ccccn2)c(-c2ccccn2)nc1C(=O)O,16.3
7,O=C1/C(=C\c2ccc([N+](=O)[O-])o2)SC2N=C(COc3ccc(Cl)cc3)NN12 (stereo unspecified),38.8

# Tested on: OVCAR-5 ovarian
# Test: inhibition of tumour cell growth, NCI panel, 48 h
row,SMILES,TGI [µM]
1,CSC1=C(SC)SC(=C2SC3=C(SC(=C4SCCS4)S3)S2)S1,> 100
2,COn1cc(C=O)c2ccccc21,> 100
3,COc1ccc2c(c1)CC[C@@H]1[C@@H]2CC[C@]2(C)C(=O)/C(=C/c3ccc(OC)c(OC)c3)C[C@@H]12,> 100
4,CC1=C(C(N)=O)C(c2ccncc2)C(C#N)=C2SCC(=O)N12 (stereo unspecified),> 100
5,O=C(CC(c1ccccc1)N1CCCCC1)c1ccccc1 (stereo unspecified),32.9
6,O=C(O)c1nc(-c2ccccn2)c(-c2ccccn2)nc1C(=O)O,18.3
7,O=C1/C(=C\c2ccc([N+](=O)[O-])o2)SC2N=C(COc3ccc(Cl)cc3)NN12 (stereo unspecified),47.5

# Tested on: SR leukemia
# Test: inhibition of tumour cell growth, NCI panel, 48 h
row,SMILES,TGI [µM]
1,CSC1=C(SC)SC(=C2SC3=C(SC(=C4SCCS4)S3)S2)S1,> 100
2,COn1cc(C=O)c2ccccc21,> 71.4
3,COc1ccc2c(c1)CC[C@@H]1[C@@H]2CC[C@]2(C)C(=O)/C(=C/c3ccc(OC)c(OC)c3)C[C@@H]12,> 100
4,CC1=C(C(N)=O)C(c2ccncc2)C(C#N)=C2SCC(=O)N12 (stereo unspecified),> 100
5,O=C(CC(c1ccccc1)N1CCCCC1)c1ccccc1 (stereo unspecified),6.15
6,O=C(O)c1nc(-c2ccccn2)c(-c2ccccn2)nc1C(=O)O,9.91
7,O=C1/C(=C\c2ccc([N+](=O)[O-])o2)SC2N=C(COc3ccc(Cl)cc3)NN12 (stereo unspecified),> 100

# Tested on: SF-539 CNS
# Test: inhibition of tumour cell growth, NCI panel, 48 h
row,SMILES,TGI [µM]
1,CSC1=C(SC)SC(=C2SC3=C(SC(=C4SCCS4)S3)S2)S1,> 100
2,COn1cc(C=O)c2ccccc21,> 100
3,COc1ccc2c(c1)CC[C@@H]1[C@@H]2CC[C@]2(C)C(=O)/C(=C/c3ccc(OC)c(OC)c3)C[C@@H]12,> 100
4,CC1=C(C(N)=O)C(c2ccncc2)C(C#N)=C2SCC(=O)N12 (stereo unspecified),> 100
5,O=C(CC(c1ccccc1)N1CCCCC1)c1ccccc1 (stereo unspecified),39.2
6,O=C(O)c1nc(-c2ccccn2)c(-c2ccccn2)nc1C(=O)O,20.6
7,O=C1/C(=C\c2ccc([N+](=O)[O-])o2)SC2N=C(COc3ccc(Cl)cc3)NN12 (stereo unspecified),15.5

# Tested on: MDA-MB-435
# Test: inhibition of tumour cell growth, NCI panel, 48 h
row,SMILES,TGI [µM]
1,CSC1=C(SC)SC(=C2SC3=C(SC(=C4SCCS4)S3)S2)S1,> 100
2,COn1cc(C=O)c2ccccc21,34.9
3,COc1ccc2c(c1)CC[C@@H]1[C@@H]2CC[C@]2(C)C(=O)/C(=C/c3ccc(OC)c(OC)c3)C[C@@H]12,> 100
4,CC1=C(C(N)=O)C(c2ccncc2)C(C#N)=C2SCC(=O)N12 (stereo unspecified),> 100
5,O=C(CC(c1ccccc1)N1CCCCC1)c1ccccc1 (stereo unspecified),27.4
6,O=C(O)c1nc(-c2ccccn2)c(-c2ccccn2)nc1C(=O)O,30.8
7,O=C1/C(=C\c2ccc([N+](=O)[O-])o2)SC2N=C(COc3ccc(Cl)cc3)NN12 (stereo unspecified),16.3

# Tested on: HL-60(TB) leukemia
# Test: inhibition of tumour cell growth, NCI panel, 48 h
row,SMILES,TGI [µM]
1,CSC1=C(SC)SC(=C2SC3=C(SC(=C4SCCS4)S3)S2)S1,> 100
2,COn1cc(C=O)c2ccccc21,1.52
3,COc1ccc2c(c1)CC[C@@H]1[C@@H]2CC[C@]2(C)C(=O)/C(=C/c3ccc(OC)c(OC)c3)C[C@@H]12,> 100
4,CC1=C(C(N)=O)C(c2ccncc2)C(C#N)=C2SCC(=O)N12 (stereo unspecified),> 100
5,O=C(CC(c1ccccc1)N1CCCCC1)c1ccccc1 (stereo unspecified),33.7
6,O=C(O)c1nc(-c2ccccn2)c(-c2ccccn2)nc1C(=O)O,18.3
7,O=C1/C(=C\c2ccc([N+](=O)[O-])o2)SC2N=C(COc3ccc(Cl)cc3)NN12 (stereo unspecified),6.03
